According to patent US20080064727A1, “Crystalline forms of tiagabine hydrochloride” (Cephalon, Inc., priority 2006, published 2008):
Entries after “also recorded” stand apart in the source; their conditions may differ. Each block holds one compound with its values, some of them ahead of it.

Experiments:
Assay type in all cases: physicochemical
[1] = Solid-form stability on drying under vacuum, resulting form by XRPD analysis
Procedure: (§1) X-ray powder diffraction (XRPD) analyses were performed using the following instruments & methods:
(§2) A. Shimadzu XRD-6000 X-ray powder diffractometer using Cu Kα radiation. The instrument was equipped with a long fine focus X-ray tube. The tube voltage and amperage were set to 40 kV and 40 mA, respectively. The divergence and scattering slits were set at 1° and the receiving slit was set at 0.15 mm. Diffracted radiation was detected by a NaI scintillation detector. A θ-2θ continuous scan at 3°/min (0.4 sec/0.02° step) from 2.5 to 40° 2θ was used. A silicon standard was analyzed to check the instrument alignment. Data were collected and analyzed using XRD-6000 v. 4.1. Samples were prepared for analysis by placing them in a sample holder.
(§3) B. Inel XRG-3000 diffractometer, equipped with a CPS (Curved Position Sensitive) detector with a 2 Orange of 120°. Real time data were collected using Cu—Kα radiation starting at approximately 4° 2θ at a resolution of 0.03° 2θ. The tube voltage and amperage were set to 40 kV and 30 mA, respectively. The monochromator slit was set at 5 mm by 80 μm or 160 μm. […] Samples were prepared for analysis by packing them into thin-walled glass capillaries. Each capillary was mounted onto a goniometer head that is motorized to permit spinning of the capillary during data acquisition. The acquisition time was between 5 to 10 min. Instrument calibration was performed using a silicon reference standard.
(§4) D. Bruker D-8 Discover diffractometer and Bruker's General Area Diffraction Detection System (GADDS, v. 4.1.20). An incident beam of Cu—Kα radiation was produced using a fine-focus tube (40 kV, 40 mA), a Gobel mirror, and a 0.5 mm double-pinhole collimator. The samples were positioned for analysis by securing the well plate to a translation stage and moving each sample to intersect the incident beam. Alternatively, the sample was packed between 3-micron thick films to form a portable disc-shaped specimen, and the specimen was loaded in a holder secured to a translation stage. The samples were analyzed using a transmission geometry. The incident beam was scanned and rastered over the sample during the analysis to optimize orientation statistics. A beam-stop was used to minimize air scatter from the incident beam at low angles. Diffraction patterns were collected using a Hi-Star area detector located 15 cm from the sample and processed using GADDS. The intensity in the GADDS image of the diffraction pattern was integrated using a step size of 0.04° 2θ. The integrated patterns display diffraction intensity as a function of 2θ. Prior to the analysis a silicon standard was analyzed to verify the Si 111 peak position.
(§5) E. Peak Picking Methods. Any XRPD files generated from Inel or Bruker XRPD instruments were converted to Shimadzu .raw file using File Monkey version 3.0.4. The Shimadzu .raw file was processed by the Shimadzu XRD-6000 version 4.1 software to automatically find peak positions. The “peak position” means the maximum intensity of a peaked intensity profile. The following processes were used with the Shimadzu XRD-6000 “Basic Process” version 2.6 algorithm: • Smoothing was done on all patterns. • The background was subtracted to find the net, relative intensity of the peaks. • A peak from Cu K alpha2 (1.5444 Å) wavelength was subtracted from the peak generated by Cu K alpha1 (1.5406 Å) peak at 50% intensity for all patterns. Differential Scanning Calorimetry

[2] = Solid-form stability on storage, resulting form by XRPD analysis; settings: for Form indicated by XRPD analysis after storage / Form converted to during storage: hydrochloride; for Form converted to during storage: during storage (summary statement, conditions not given)
Procedure: as §1, §2, §3, §4, §5

[3] = Solid-form stability on heating, resulting form by XRPD analysis
Procedure: as §1, §2, §3
C. Shimadzu XRD-6000 X-ray powder diffractometer equipped with an Anton Paar HTK 1200 high temperature stage (Variable-temperature XRPD (VT-XRPD)). The sample was packed in a ceramic holder and analyzed form 2.5 to 40° 2θ at 3°/min (0.4 sec/0.02° step). The heating rate was 10° C./min. A silicon standard was analyzed to check the instrument alignment. Temperature calibration was performed using vanillin and sulfapyridine USP melting point standards. Data were collected and analyzed using XPD-6000 v.4.1. The system was kept under a purge of nitrogen during the analysis.
as §4
E. Peak Picking Methods. Any XRPD files generated from Inel or Bruker XRPD instruments were converted to Shimadzu .raw file using File Monkey version 3.0.4. The Shimadzu .raw file was processed by the Shimadzu XRD-6000 version 4.1 software to automatically find peak positions. The “peak position” means the maximum intensity of a peaked intensity profile. The following processes were used with the Shimadzu XRD-6000 “Basic Process” version 2.6 algorithm: • Smoothing was done on all patterns. • The background was subtracted to find the net, relative intensity of the peaks. • A peak from Cu K alpha2 (1.5444 Å) wavelength was subtracted from the peak generated by Cu K alpha1 (1.5406 Å) peak at 50% intensity for all patterns. […]

[4] = dried under vacuum at room temperature for less than one day, hydrochloride
[5] = stored two months, ambient temperature and humidity
[6] = stored five (5) days, about 40° C., about 89% relative humidity
[7] = stored five (5) days, about 60° C., about 75% relative humidity
[8] = stored five (5) days, 2-8° C., about 96% relative humidity
[9] = under vacuum at room temperature for about four (4) days, hydrochloride
[10] = dried about 14 hours under vacuum at about 65° C., hydrochloride

Form indicated by XRPD analysis after drying [1, 4]: Form AA
Compound: Cc1ccsc1C(=CCCN1CCC[C@@H](C(=O)O)C1)c1sccc1C.Cl [Form AA, tiagabine hydrochloride]

Time stable when stored ([2]; ambient temperature and humidity): 2 months
Form indicated by XRPD analysis after storage [2, 5]: tiagabine HCl Form C
Compound: Cc1ccsc1C(=CCCN1CCC[C@@H](C(=O)O)C1)c1sccc1C.Cl [Form C, tiagabine hydrochloride]

Form indicated by XRPD analysis after storage [2, 7]: tiagabine HCl Form B and a trace of Q
Compound: Cc1ccsc1C(=CCCN1CCC[C@@H](C(=O)O)C1)c1sccc1C.Cl [Form D containing a minor amount of Form B] [tiagabine hydrochloride]
Form indicated by XRPD analysis after storage [2, 6]: a mixture of tiagabine HCl Form B and a trace of Q

Form indicated by XRPD analysis after storage [2, 8]: a mixture of tiagabine HCl Forms B and Q
Form indicated by XRPD analysis after storage [2, 5]: a mixture of tiagabine HCl Forms Q and B
Compound: Cc1ccsc1C(=CCCN1CCC[C@@H](C(=O)O)C1)c1sccc1C.Cl [Form D, tiagabine hydrochloride]
Form converted to during storage [2]: tiagabine hydrochloride Form B, sometimes mixed with tiagabine hydrochloride Form Q
Form indicated by XRPD analysis after drying [1, 4]: a mixture of Form D containing a minor amount of Form A

Form indicated by XRPD analysis after drying [1, 9]: Form Q
Compound: Cc1ccsc1C(=CCCN1CCC[C@@H](C(=O)O)C1)c1sccc1C.Cl [Form H, tiagabine hydrochloride]
Form indicated by XRPD analysis after heating ([3]; heated at 90-95° C. for about 10 minutes, hydrochloride): Form Q containing a minor amount of Form B

Compound: Cc1ccsc1C(=CCCN1CCC[C@@H](C(=O)O)C1)c1sccc1C.Cl [Form I, tiagabine hydrochloride]
Form converted to during storage [2]: a mixture of tiagabine hydrochloride Forms S and B
Form indicated by XRPD analysis after storage [2, 5]: a mixture of tiagabine HCl Forms S and B; also recorded: a mixture of Form S+Form B

Form indicated by XRPD analysis after storage [2, 5]: a mixture of tiagabine HCl Forms Q and B
Compound: Cc1ccsc1C(=CCCN1CCC[C@@H](C(=O)O)C1)c1sccc1C.Cl [Form J, tiagabine hydrochloride]
Form converted to during storage [2]: a mixture of tiagabine hydrochloride Forms Q and B

Form indicated by XRPD analysis after storage [2, 5]: a mixture of tiagabine HCl Forms B and Q
Compound: Cc1ccsc1C(=CCCN1CCC[C@@H](C(=O)O)C1)c1sccc1C.Cl [Form M, tiagabine hydrochloride]
Form converted to during storage [2]: a mixture of tiagabine hydrochloride Forms B and Q

Form indicated by XRPD analysis after storage [2, 8]: a mixture of tiagabine HCl Forms P and B
Form indicated by XRPD analysis after drying [1, 10]: a mixture of tiagabine Form P and B
Compound: Cc1ccsc1C(=CCCN1CCC[C@@H](C(=O)O)C1)c1sccc1C.Cl [Form P containing Form B, tiagabine hydrochloride]

Form indicated by XRPD analysis after drying ([1]; dried about 15 hours under vacuum at 40-95° C.): a mixture of tiagabine HCl Forms P and B
Form indicated by XRPD analysis after drying [1, 9]: a mixture of tiagabine HCl Forms P and B
Compound: Cc1ccsc1C(=CCCN1CCC[C@@H](C(=O)O)C1)c1sccc1C.Cl [Form P containing a minor amount of Form B] [tiagabine hydrochloride]

Form converted to during storage [2]: Form B
Form indicated by XRPD analysis after storage [2, 6]: tiagabine HCl Form B
Form indicated by XRPD analysis after storage [2, 7]: tiagabine HCl Form B
Compound: Cc1ccsc1C(=CCCN1CCC[C@@H](C(=O)O)C1)c1sccc1C.Cl [Form P, tiagabine hydrochloride]

Form indicated by XRPD analysis after drying [1, 10]: a mixture of tiagabine HCl Forms S and B
Compound: Cc1ccsc1C(=CCCN1CCC[C@@H](C(=O)O)C1)c1sccc1C.Cl [Form S mixed with Form B, tiagabine hydrochloride]

Form indicated by XRPD analysis after drying [1, 9]: tiagabine HCl Form C
Form indicated by XRPD analysis after heating ([3]; heated to about 115-120° C. for approximately 10 minutes): tiagabine HCl Form B
Compound: Cc1ccsc1C(=CCCN1CCC[C@@H](C(=O)O)C1)c1sccc1C.Cl [Form T, tiagabine hydrochloride]

Form indicated by XRPD analysis after drying [1, 4]: Form Y
Compound: Cc1ccsc1C(=CCCN1CCC[C@@H](C(=O)O)C1)c1sccc1C.Cl [Form Y, tiagabine hydrochloride]
Form indicated by XRPD analysis after heating ([3]; heated at 100-110° C. for about 10 minutes): Form B containing a minor amount of Form Q

Form indicated by XRPD analysis after heating ([3]; heated at 90-95° C. for about 10 minutes, listed as From Z, hydrochloride): a mixture of Forms B and Q
Compound: Cc1ccsc1C(=CCCN1CCC[C@@H](C(=O)O)C1)c1sccc1C.Cl [Form Z, tiagabine hydrochloride]
